The source of these data is PubChem BioAssay (NCI).

Holding throughout (test): inhibition of tumour cell growth, NCI panel, 48 h
The test system of test [1] is 786-0 renal.
The subject of test [2] is DU-145 prostate.
In test [3] the test system is HT29 colon.
Test [4] concerns MDA-N.
Test [5] relates to NCI-H460 lung.
Test [6] concerns OVCAR-5 ovarian.
In test [7] the test system is SF-295 CNS.
Test [8] concerns SK-MEL-2 melanoma.
The subject of test [9] is SK-MEL-5 melanoma.
Test [10] relates to SN12C renal.
The test system of test [11] is SNB-75 CNS.
Test [12] concerns SR leukemia.
Test [13] deals with SW-620 colon.
Test [14] deals with T-47D breast.
Test [15] has as its system U251 CNS.
Test [16] concerns UACC-257 melanoma.
Test [17] deals with UO-31 renal.

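Dose response: 5 concentrations. Exposure: 48 h. Format: 96-well plates. Endpoint: linear interpolation; highest concentration if not reached. TGI: total growth inhibition.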

As to `C#CCOC(=O)C(N)CC(N)=O` (stereo not drawn), the TGI in [1] is above 100 µM; in test [2] it was above 100 µM; in test [3], above 31.6 µM; in test [4], above 100 µM; in [5] it was above 100 µM; in test [6], above 100 µM. The TGI in [7], in test [8], in [9], in test [10], in [11] and in test [12] was above 100 µM throughout. The TGI in test [13], in test [14], in test [15], in [16] and in [17] was above 100 µM each time.
With `CC1=C(O)C(=O)C=C2C1=CC=C1[C@@]2(C)CC[C@@]2(C)C3C[C@@H](C)C(=O)[C@@H](O)[C@]3(C)CC[C@]12C` (stereo partly drawn), the TGI stood at 2.36 µM in test [1]; 3.38 µM in test [2]; 3.79 µM in test [3]; 3.3 µM in test [4]; 37.6 µM in test [5]; 9.29 µM in test [6]. In addition, the TGI in test [7] is 13.4 µM; in [8], 9.85 µM; in [9] it was 12.7 µM; in [10] it was 4.89 µM; in test [11], 17.3 µM; in [12] it was 1.3 µM. Besides, the TGI was 2.32 µM in test [13]; 3.44 µM in [14]; 2.88 µM in test [15]; 7.46 µM in test [16]; 3.53 µM in [17].
For `Clc1ccc(Cc2nc3ccccc3o2)cc1`, the TGI in test [1], in [2], in test [3], in test [4], in [5] and in test [6] was above 100 µM throughout. Besides, the TGI was above 100 µM in [7]; above 100 µM in test [8]; above 100 µM in test [9]; above 100 µM in test [10]; 91.2 µM in [11]; above 100 µM in test [12]. Moreover, the TGI in test [13], in test [14], in test [15], in test [16] and in [17] was above 100 µM in each case.
Take `CC(NCc1c(O)ccc2c(-c3ccccc3)cc(=O)oc12)C(=O)O` (stereo not drawn): the TGI in test [1], in test [2], in [3], in test [4], in test [5] and in test [6] was above 100 µM each time. Besides, the TGI in [7], in [8], in [9], in [10], in test [11] and in test [12] was above 100 µM each time. For the same compound, the TGI in test [13], in [14], in test [15], in test [16] and in test [17] was above 100 µM each time.
As to `Cc1ccc2c(c1C)C(=O)C1(C2)Cc2ccc3c(c2C1=O)CCC3` (stereo not drawn), the TGI in test [1], in test [2], in [3], in test [4], in test [5] and in [6] was above 100 µM each time. Also, the TGI in test [7], in test [8], in [9], in test [10], in test [11] and in test [12] was above 100 µM each time. Further, the TGI in [13], in [14], in test [15], in test [16] and in test [17] was above 100 µM in each case.
For `COc1ccc2c(c1)/C(=C/c1c(O)[nH]c(=S)[nH]c1=O)C=N2`, the TGI in test [1], in [2], in [3], in test [4], in [5] and in [6] was above 100 µM in each case. Further, the TGI was above 100 µM in test [7]; above 100 µM in test [8]; above 100 µM in test [9]; above 100 µM in test [10]; 49.9 µM in [11]; above 100 µM in test [12]. Also, the TGI in [13], in test [14], in test [15], in test [16] and in test [17] was above 100 µM each time.
On to `C=CC(=O)NCCC(=O)OCn1cc(F)c(=O)[nH]c1=O`, for which the TGI is above 100 µM in test [1]; above 100 µM in test [2]; above 100 µM in [3]; above 100 µM in test [4]; 2.34 µM in test [5]; above 100 µM in [6]. The TGI in test [7] was above 100 µM; in test [8] it was above 100 µM; in test [9] it was above 100 µM; in test [10] it was 15.3 µM; in [11], above 100 µM; in test [12], 52.5 µM. The TGI in [13], in test [14], in test [15], in [16] and in test [17] was above 100 µM each time.
In the case of `N=C(N)SCc1ccc2c(c1)S(=O)(=O)c1ccccc1O2`, the TGI in test [1] was above 100 µM; in test [2] it was above 100 µM; in test [3], 33.8 µM; in test [4] it was 77 µM; in [5] it was 53.1 µM; in test [6], 47.3 µM. Moreover, the TGI in test [7] was 56.8 µM; in [8] it was 34.5 µM; in test [10] it was above 100 µM; in test [11], 28.7 µM; in test [12], above 100 µM; in test [13] it was 53 µM. In addition, the TGI in test [14] was found to be 73.8 µM; in test [15], 38.2 µM; in test [16], 35.2 µM; in [17], 29.7 µM.
Turning to `CC(C#N)(c1ccccc1)N(CCc1ccccc1)C(=O)Oc1ccccc1` (stereo not drawn), the TGI in [1], in test [2], in test [3], in test [4], in [6] and in test [7] was above 100 µM throughout. Further, the TGI in test [8] was above 100 µM; in test [9] it was above 100 µM; in test [10], above 100 µM; in test [11] it was 81.6 µM; in [12], above 100 µM; in [13] it was above 100 µM. Also, the TGI in test [14], in test [15], in test [16] and in test [17] was above 100 µM each time.
Consider `Cc1ccc(S(=O)(=O)n2cc(/C=C/C#N)c(-c3cn(S(=O)(=O)c4ccc(C)cc4)cc3-c3cn(S(=O)(=O)c4ccc(C)cc4)cc3/C=C/C#N)c2)cc1`, for which the TGI in test [1], in test [2], in test [3], in [4], in test [6] and in test [7] was above 100 µM throughout. Besides, the TGI in [8], in test [9], in test [10], in test [11], in test [12] and in test [14] was above 100 µM each time. The TGI in test [16] and in test [17] was above 100 µM in each case.
`C=CCOC(=O)Cn1cnc2c(N)ncnc21`: the TGI in test [1], in test [2], in test [3], in test [4], in [5] and in test [7] was above 100 µM throughout. The TGI in [8], in test [9], in test [10], in [11], in test [12] and in [13] was above 100 µM each time. Besides, the TGI in [14], in test [15], in test [16] and in [17] was above 100 µM in each case.
Take `NC(Cc1ccc(CP(=O)(O)O)cc1)C(=O)O` (stereo not drawn): the TGI in test [2], in test [3], in [4], in [5], in test [6] and in [7] was above 100 µM each time. The TGI in test [8], in [9], in test [10], in [11], in [12] and in test [13] was above 100 µM each time. In addition, the TGI in test [14], in test [15], in [16] and in test [17] was above 100 µM each time.
For `O=C(CCC(=O)c1ccsc1)c1ccsc1`, the TGI in [1], in [2], in [4], in test [5], in test [6] and in [7] was above 100 µM in each case. Besides, the TGI in test [8], in test [9], in test [10], in test [11], in test [12] and in test [13] was above 100 µM each time. Moreover, the TGI in [14], in test [15], in test [16] and in test [17] was above 100 µM throughout.
